Reference: PubChem BioAssay (NCI)
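Compound exposure: 48 hours, 5 concentrations, 96-well plates. GI50 marks 50% less growth. At the TGI there is no net growth.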

Experiments:
Assay in all cases: NCI tumour cell line growth inhibition, 48 h
[1] = test system: NCI/ADR-RES ovarian
[2] = test system: EKVX NSCLC
[3] = test system: U251 CNS
[4] = test system: ACHN renal
[5] = test system: SW-620 colon
[6] = test system: HOP-92 NSCLC
[7] = test system: OVCAR-4 ovarian
[8] = test system: SK-OV-3 ovarian
[9] = test system: SF-295 CNS
[10] = test system: K-562 leukemia
[11] = test system: DU-145 prostate
[12] = test system: MOLT-4 leukemia
[13] = test system: T-47D breast
[14] = test system: SNB-75 CNS
[15] = test system: HOP-62 NSCLC
[16] = test system: SK-MEL-2 melanoma
[17] = test system: NCI-H522 lung
[18] = test system: OVCAR-3 ovarian
[19] = test system: BT-549 breast
[20] = test system: OVCAR-8 ovarian
[21] = test system: HS 578T breast
[22] = test system: MCF7 breast
[23] = test system: HCC-2998 colon
[24] = test system: COLO 205 colon
[25] = test system: SF-268 CNS
[26] = test system: CAKI-1 renal
[27] = test system: NCI-H226 lung
[28] = test system: RPMI-8226 leukemia
[29] = test system: A549 NSCLC
[30] = test system: NCI-H460 lung
[31] = test system: LOX IMVI melanoma
[32] = test system: UACC-257 melanoma
[33] = test system: A498 renal
[34] = test system: HCT-15 colon
[35] = test system: KM12 colon
[36] = test system: SF-539 CNS
[37] = test system: TK-10 renal
[38] = test system: 786-0 renal
[39] = test system: MALME-3M melanoma
[40] = test system: SNB-19 CNS
[41] = test system: OVCAR-5 ovarian
[42] = test system: SK-MEL-28 melanoma
[43] = test system: UACC-62 melanoma
[44] = test system: SK-MEL-5 melanoma
[45] = test system: M14 melanoma
[46] = test system: HCT-116 colon
[47] = test system: UO-31 renal
[48] = test system: CCRF-CEM leukemia
[49] = test system: SN12C renal
[50] = test system: PC-3 prostate
[51] = test system: IGROV1 ovarian
[52] = test system: HT29 colon
[53] = test system: NCI-H23 lung
[54] = test system: RXF 393 renal
[55] = test system: MDA-MB-435
[56] = test system: MDA-MB-231 breast
[57] = test system: HL-60(TB) leukemia
[58] = test system: SR leukemia

Compound `O=c1c2sc(=S)n(-c3ccc(F)cc3)c2ncn1Cc1ccc(F)cc1F` has a GI50 [1] of over 100 µM, a TGI [1] of over 100 µM and a GI50 [2] of over 100 µM. For the same compound, the TGI [2] was over 100 µM, the GI50 [3] was over 100 µM and the TGI [3] was over 100 µM. It also gave a GI50 [4] of over 100 µM, a TGI [4] of over 100 µM and a GI50 [5] of over 100 µM. It also gave a TGI [5] of over 100 µM, a GI50 [6] of 44.8 µM and a TGI [6] of over 100 µM. For the same compound, the GI50 [7] was over 100 µM, the TGI [7] was over 100 µM and the GI50 [8] was over 100 µM. The TGI [8] was over 100 µM, the GI50 [9] was 81.9 µM and the TGI [9] was over 100 µM. For the same compound, the GI50 [10] was over 100 µM, the TGI [10] was over 100 µM and the GI50 [11] was over 100 µM. The TGI [11] was over 100 µM, the GI50 [12] was over 100 µM and the TGI [12] was over 100 µM. It also gave a GI50 [13] of over 100 µM, a TGI [13] of over 100 µM and a GI50 [14] of 94 µM. For the same compound, the TGI [14] was over 100 µM, the GI50 [15] was over 100 µM and the TGI [15] was over 100 µM. It also gave a GI50 [16] of over 100 µM, a TGI [16] of over 100 µM and a GI50 [17] of over 100 µM. The TGI [17] was over 100 µM, the GI50 [18] was over 100 µM and the TGI [18] was over 100 µM. For the same compound, the GI50 [19] was over 100 µM, the TGI [19] was over 100 µM and the GI50 [20] was over 100 µM. It also gave a TGI [20] of over 100 µM, a GI50 [21] of 78.8 µM and a TGI [21] of over 100 µM. It also gave a GI50 [22] of 67.7 µM, a TGI [22] of over 100 µM and a GI50 [23] of over 100 µM. For the same compound, the TGI [23] was over 100 µM, the GI50 [24] was over 100 µM and the TGI [24] was over 100 µM. The GI50 [25] was 76 µM, the TGI [25] was over 100 µM and the GI50 [26] was 37.7 µM. The TGI [26] was over 100 µM, the GI50 [27] was over 100 µM and the TGI [27] was over 100 µM. It also gave a GI50 [28] of over 100 µM, a TGI [28] of over 100 µM and a GI50 [29] of 92.1 µM. For the same compound, the TGI [29] was over 100 µM, the GI50 [30] was over 100 µM and the TGI [30] was over 100 µM. It also gave a GI50 [31] of over 100 µM, a TGI [31] of over 100 µM and a GI50 [32] of over 100 µM. The TGI [32] was over 100 µM, the GI50 [33] was over 100 µM and the TGI [33] was over 100 µM. It also gave a GI50 [34] of over 100 µM, a TGI [34] of over 100 µM and a GI50 [35] of over 100 µM. It also gave a TGI [35] of over 100 µM, a GI50 [36] of over 100 µM and a TGI [36] of over 100 µM. It also gave a GI50 [37] of 96 µM, a TGI [37] of over 100 µM and a GI50 [38] of 80.5 µM. The TGI [38] was over 100 µM, the GI50 [39] was over 100 µM and the TGI [39] was over 100 µM. For the same compound, the GI50 [40] was 75.8 µM, the TGI [40] was over 100 µM and the GI50 [41] was over 100 µM. For the same compound, the TGI [41] was over 100 µM, the GI50 [42] was over 100 µM and the TGI [42] was over 100 µM. The GI50 [43] was over 100 µM, the TGI [43] was over 100 µM and the GI50 [44] was 84.3 µM. The TGI [44] was over 100 µM, the GI50 [45] was over 100 µM and the TGI [45] was over 100 µM. For the same compound, the GI50 [46] was 81.8 µM, the TGI [46] was over 100 µM and the GI50 [47] was over 100 µM. For the same compound, the TGI [47] was over 100 µM, the GI50 [48] was over 100 µM and the TGI [48] was over 100 µM. For the same compound, the GI50 [49] was over 100 µM, the TGI [49] was over 100 µM and the GI50 [50] was 80.8 µM. For the same compound, the TGI [50] was over 100 µM, the GI50 [51] was over 100 µM and the TGI [51] was over 100 µM. For the same compound, the GI50 [52] was over 100 µM, the TGI [52] was over 100 µM and the GI50 [53] was over 100 µM. The TGI [53] was over 100 µM, the GI50 [54] was over 100 µM and the TGI [54] was over 100 µM. For the same compound, the GI50 [55] was over 100 µM, the TGI [55] was over 100 µM and the GI50 [56] was over 100 µM. It also gave a TGI [56] of over 100 µM, a GI50 [57] of over 100 µM and a TGI [57] of over 100 µM.

In the case of `C=C1C(=O)O[C@@H]2C[C@@H]1CC/C(C)=C/CC/C(C)=C/CC[C@@]2(C)O`, the GI50 [1] is reported as 9.28 µM, the TGI [1] is reported as 24.4 µM and the GI50 [2] is reported as 23.5 µM. It also gave a TGI [2] of 48.9 µM, a GI50 [3] of 18.4 µM and a TGI [3] of 43.6 µM. The GI50 [4] was 13 µM, the TGI [4] was 28.1 µM and the GI50 [5] was 25.3 µM. The TGI [5] was 52.5 µM, the GI50 [6] was 3.96 µM and the TGI [6] was 19.8 µM. It also gave a GI50 [7] of 34.6 µM, a TGI [7] of over 100 µM and a GI50 [8] of 46.6 µM. The TGI [8] was over 100 µM, the GI50 [9] was 16.6 µM and the TGI [9] was 32.2 µM. For the same compound, the GI50 [10] was 4.7 µM, the TGI [10] was 17.3 µM and the GI50 [11] was 14 µM. It also gave a TGI [11] of 30.2 µM, a GI50 [12] of 3.72 µM and a TGI [12] of 18 µM. The GI50 [13] was 34.2 µM, the TGI [13] was over 100 µM and the GI50 [14] was 26.4 µM. It also gave a TGI [14] of 47.4 µM, a GI50 [16] of 2.69 µM and a TGI [16] of 12.5 µM. It also gave a GI50 [17] of 6.36 µM, a TGI [17] of 23.7 µM and a GI50 [18] of 5.59 µM. For the same compound, the TGI [18] was 18.7 µM, the GI50 [19] was 21.1 µM and the TGI [19] was 40.4 µM. It also gave a GI50 [20] of 21.7 µM, a TGI [20] of 85.4 µM and a GI50 [21] of 28.5 µM. The TGI [21] was 72.4 µM, the GI50 [22] was 11.9 µM and the TGI [22] was 36.2 µM. The GI50 [23] was 14 µM, the TGI [23] was 28.7 µM and the GI50 [24] was 34.1 µM. The TGI [24] was 99.2 µM, the GI50 [25] was 16.3 µM and the TGI [25] was 35.6 µM. It also gave a GI50 [26] of 10.7 µM, a TGI [26] of 23.7 µM and a GI50 [27] of 4.54 µM. It also gave a TGI [27] of 22.2 µM, a GI50 [28] of 2.09 µM and a TGI [28] of 5.09 µM. For the same compound, the GI50 [29] was 18.2 µM, the TGI [29] was 41.2 µM and the GI50 [30] was 16.5 µM. It also gave a TGI [30] of 43.2 µM, a GI50 [31] of 5.49 µM and a TGI [31] of over 100 µM. For the same compound, the GI50 [32] was 17.5 µM, the TGI [32] was 41.9 µM and the GI50 [33] was 23.4 µM. For the same compound, the TGI [33] was 41.3 µM, the GI50 [34] was 18.2 µM and the TGI [34] was 51.4 µM. It also gave a GI50 [35] of 3.31 µM, a TGI [35] of 13.2 µM and a GI50 [36] of 22.3 µM. For the same compound, the TGI [36] was 42.5 µM, the GI50 [38] was 11.5 µM and the TGI [38] was 24 µM. For the same compound, the GI50 [40] was 28.4 µM, the TGI [40] was 76.2 µM and the GI50 [41] was 22.1 µM. For the same compound, the TGI [41] was 39.4 µM, the GI50 [42] was 22.2 µM and the TGI [42] was 49.8 µM. For the same compound, the GI50 [43] was 14 µM, the TGI [43] was 29.3 µM and the GI50 [44] was 16.2 µM. For the same compound, the TGI [44] was 36.4 µM, the GI50 [45] was 2.04 µM and the TGI [45] was 8.37 µM. For the same compound, the GI50 [46] was 3.06 µM, the TGI [46] was 11.9 µM and the GI50 [47] was 16.3 µM. The TGI [47] was 33.4 µM, the GI50 [50] was 6.73 µM and the TGI [50] was 21.3 µM. For the same compound, the GI50 [51] was 0.766 µM, the TGI [51] was 20.2 µM and the GI50 [52] was 31 µM. The TGI [52] was over 100 µM, the GI50 [53] was 4.14 µM and the TGI [53] was 16.2 µM. For the same compound, the GI50 [58] was 1.63 µM, the TGI [58] was 3.58 µM and the GI50 [54] was 19.1 µM. It also gave a TGI [54] of 45.6 µM, a GI50 [55] of 5.07 µM and a TGI [55] of 18.5 µM. It also gave a GI50 [56] of 8.56 µM, a TGI [56] of 31.8 µM and a GI50 [57] of 3.04 µM. It also gave a TGI [57] of 8.95 µM.
